Reference: patent US6933108B2 (priority 1999, dated 2005)
“Also recorded” adds a separate entry of the source.

Key:
EBO-Z pseudotype virus = type: cell-based, Ebola-Zaire virus
MBG pseudotype virus = type: cell-based, Marburg virus
Ampho luciferase virus = type: cell-based, amphotropic murine leukemia virus
FR-α = FR-α (Homo sapiens, UniProt P15328); conditions: cited from earlier work
[1] = tested on: Filoviruses, including the Marburg and Ebola viruses; conditions: cited from earlier work

Chain of FR-α (P15328 25-234): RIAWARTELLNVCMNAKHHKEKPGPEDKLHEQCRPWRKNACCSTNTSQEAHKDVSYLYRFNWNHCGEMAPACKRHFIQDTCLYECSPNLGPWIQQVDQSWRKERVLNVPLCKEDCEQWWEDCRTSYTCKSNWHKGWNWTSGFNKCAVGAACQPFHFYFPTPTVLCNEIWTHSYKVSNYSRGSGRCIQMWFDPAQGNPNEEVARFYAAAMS

SMILES: Nc1nc2ncc(CNc3ccc(C(=O)N[C@@H](CCC(=O)O)C(=O)O)cc3)nc2c(=O)[nH]1 [folic acid]
- entry by EBO-Z virus (EBO-Z pseudotype virus): inhibited significantly; also recorded: specifically inhibited
- entry by MBG luciferase virus (MBG pseudotype virus): specifically inhibited
- reduction of MBG virus entry (MBG pseudotype virus): ~80%
- entry by Ampho luciferase pseudotype (Ampho luciferase virus): very slight alteration; also recorded: did not significantly decrease; also recorded: not Ampho

SMILES: CN1c2c(nc(N)[nH]c2=O)NCC1CNc1ccc(C(=O)N[C@@H](CCC(=O)O)C(=O)O)cc1 (stereo partly drawn) [5-methyltetrahydrofolic acid]
- binding affinity to FR-α (FR-α): high affinity

SMILES: NC(=O)c1ncn([C@@H]2O[C@H](CO)[C@@H](O)[C@H]2O)n1 [ribavirin]
- in vitro effect against filoviruses [1]: no in vitro effect
